{"source": "patent US6576612B1", "about": "“Antitumor therapy comprising distamycin derivatives” (Pharmacia Italia S.p.A., priority 2000, dated 2003)", "tested_on": "solid tumors", "experiment": "Phase I pharmacological trial, iv single administration every three weeks", "type": "in vivo, patients", "conditions": "one patient suffering from gastrointestinal sarcoma, dose level 5.1 mg/m^2, iv infusion", "method": "A phase I pharmacological trial was carried out to investigate the iv administration of the title compound given as a single administration every three weeks to patients with solid tumors.\nThe starting dose of 0.85 mg/m^2 was initially escalated in an accelerated design (100% dose increase, 1 patient/dose level) and then by a conventional dose escalation in 3-6 patient cohorts. 11 patients have been entered so far and 25 cycles have been evaluated for toxicity at dose levels of 0.85, 1.7, 3.4, 5.1 and 7.5 mg/m^2."}
{"smiles": "C=C(Br)C(=O)Nc1cc(C(=O)Nc2cc(C(=O)Nc3cc(C(=O)Nc4cc(C(=O)NCCNC(=N)N)n(C)c4)n(C)c3)n(C)c2)n(C)c1.Cl", "note": "[PNU 166196, N-(5-{[(5-{[(5-{[(2-{[amino(imino)methyl]amino}ethyl)amino]carbonyl}-1-methyl-1H-pyrrol-3-yl)amino]carbonyl}-1-methyl-1H-pyrrol-3-yl)amino]carbonyl}-1-methyl-1H-pyrrol-3-yl)-4-[(2-bromoacryloyl)amino]-1-methyl-1H-pyrrole-2-carboxamide hydrochloride]", "values": [{"measurement": "tumor response", "value": "partial response"}]}
